According to a melting point compilation (Tetko et al.):

Structure (SMILES) | melting point [°C]
Cc1cc(=O)[nH]c2c1cnn2C1CCCC1 | 259 to 261
CC(=O)N1CCN(CCC(=O)O)CC1 | 114 to 116
Cc1cc(CO)c(C)n1-c1ccccc1 | 77 to 79
Nc1cc2c(cc1C(=O)O)OCCCO2 | 160 to 162
CNc1ccnc(C)c1 | 59 to 61
CCc1ccc(Nc2nnc(S)s2)cc1 | 151 to 153
Cn1cc(C(=O)NN)cn1 | 179 to 181
Cc1ccccc1OCCC(=O)O | 92 to 94
O=C(O)c1csc(Cc2ccccc2F)n1 | 154 to 156
O=C(O)CCCNC(=O)c1ccc(Cl)cc1 | 108 to 110
Nc1ccc(C(=O)N2CCCC2)c(F)c1 | 139 to 141
N#Cc1cc(C=O)ccc1F | 80 to 84
Clc1ccc2nccnc2n1 | 148 to 150
O=C(O)CCNS(=O)(=O)c1ccc2c(c1)CCCC2 | 106 to 110
Cc1ccccc1N(CC(=O)O)S(C)(=O)=O | 109 to 111
Clc1c(Br)ccc2ccccc12 | 51 to 53
NNc1ccc(-c2ccccc2)nn1 | 144 to 146
N#Cc1ccc2c(c1)CCO2 | 64 to 66
CC(C)C(O)Cc1ccccc1Br (centres undefined) | 73 to 75
CN(C(=O)c1ccncc1)c1ccc(C#N)cc1 | 105 to 107
ClC(c1ccccc1)c1nc(-c2ccccc2)no1 (centres undefined) | 74 to 76
O=S(=O)(Cl)c1ccc2c(c1)S(=O)(=O)NC=N2 | 247 to 249
CNC(=O)c1cccc(CCl)c1 | 61 to 63
COc1cc(C=CC(=O)O)ccc1F | 211 to 213
O=C(O)c1ccc(Cl)c(NS(=O)(=O)c2ccc(F)cc2)c1 | 211 to 213
Cc1nnc(-c2ccccc2C(=O)O)o1 | 158 to 160

Structure (SMILES) | melting point [°C]
CNc1ccc(S(C)(=O)=O)cc1 | 126 to 128
c1ccc(Cc2nnc3n2CCNC3)cc1 | 111 to 113
Cc1ccc(N2C(=O)NC(CCC(=O)O)C2=O)cc1Cl (centres undefined) | 193 to 195
CCc1nc(N)sc1C(=O)O | 154 to 156
CC(=O)c1cccc(N2CCCS2(=O)=O)c1 | 84 to 86
COc1ccccc1C1(C)CC1C(=O)O (centres undefined) | 166 to 168
CCC1(C(=O)O)CCOCC1 | 83 to 85
O=C1CCc2cc(C(=O)O)ccc2N1 | 261 to 263
CCOc1ccc(-n2ncc(C(=O)O)c2C)nn1 | 227 to 229
CC(Oc1ccc(-c2ccccc2)cc1)C(=O)O (centres undefined) | 159 to 161
CS(=O)(=O)c1cccc(C(N)c2ccc(F)cc2)c1 (centres undefined) | 88 to 90
Cc1nc(C(=O)O)ccc1C#N | 150 to 152
Nc1ccc(SCCCO)cc1 | 62 to 64
CC(=O)Nc1ccc(C)cc1N | 132 to 134
NS(=O)(=O)c1cc([N+](=O)[O-])c(Br)s1 | 145 to 147
C#Cc1cnc2ccccc2n1 | 99 to 101
CCOCCCNC(=O)CC#N | 45 to 49
COc1ccc(NC(=O)OCC(F)(F)F)cn1 | 86 to 88
O=c1[nH]ccc2cc[nH]c12 | 279 to 281
CC(C)c1ccc(C2CC2C(=O)O)cc1 (centres undefined) | 67 to 69
O=C(O)Cn1c(-c2cccc(Cl)c2Cl)nc2ccccc21 | 235 to 237
CC(=O)N1CCCC(C(N)=O)C1 (centres undefined) | 146 to 148
CS(=O)(=O)Nc1cc(C(=O)O)ccc1F | 250 to 252
Cn1ccc(C(=O)N2CCCCC2CC(=O)O)cc1=O (centres undefined) | 194 to 196
CC(=O)c1cc(C#N)c(SCC(=O)O)nc1C | 187 to 189
O=C(O)C1Cc2ccccc2CN1S(=O)(=O)c1ccc(F)cc1 (centres undefined) | 99 to 101

Structure (SMILES) | melting point [°C]
O=C(O)c1cn(-c2ccccc2)nc1-c1cccs1 | 197 to 199
Nc1ccc(OCc2cccs2)cc1 | 61 to 63
Nc1ccn(Cc2cn3ccccc3n2)n1 | 144 to 146
CC(Oc1cccc(Br)c1)C(=O)NN (centres undefined) | 113 to 115
Clc1sc2ccccc2c1Cl | 53 to 55
Cn1c(S)nnc1-c1ccc(Cl)cc1 | 113 to 115
COc1ccccc1C(N)C(=O)O (centres undefined) | 169 to 171
CN1CCC(=O)Nc2cc(C(=O)O)ccc21 | 249 to 251
Cc1ccc(-n2c(S)nnc2-c2ccccn2)c(C)c1 | 234 to 236
Nc1ccc(Oc2ccnc3ccccc23)cc1 | 135 to 137
CCCn1c(C)nnc1S | 129 to 131
CSc1ccc(CNc2ccc3[nH]c(C)nc3c2)cc1 | 172 to 174
Clc1ccc2nc(Cl)nc(Cl)c2c1 | 89 to 91
COC(=O)COc1cc(C(=O)O)ccc1OC | 144 to 146
COC(=O)c1ccc(N)c([N+](=O)[O-])c1 | 201 to 203
CC(O)C(NC(=O)C1CCCC1)C(=O)O (centres undefined) | 145 to 147
CCCCOc1ccc(-c2cc(N)on2)cc1 | 112 to 114
COc1ccc(NS(=O)(=O)c2cc(N)ccc2N2CCOCC2)cc1 | 232 to 234
CS(=O)(=O)c1cccc(C(=O)NN)c1 | 144 to 146
CC1(C2CC2)NC(=O)NC1=O (centres undefined) | 168 to 170
c1ccc(NC2=NCCCS2)cc1 | 124 to 126
CNS(=O)(=O)CC(=O)O | 119 to 121
Cn1ncc2c(N)ncnc21 | 264 to 266
COCC(C)NS(=O)(=O)c1ccc(Cl)c([N+](=O)[O-])c1 (centres undefined) | 209 to 211
Nc1cccc(OCC(=O)Nc2ccccc2)c1 | 120 to 122
CC(=O)N(C)c1cccc(N)c1 | 114 to 116

Structure (SMILES) | melting point [°C]
CN(C)c1ccnc(N)n1 | 157 to 159
CNC(=O)C1Cc2ccccc2CN1 (centres undefined) | 97 to 99
CC(C)(C)c1cnnc(N)n1 | 187 to 189
Cc1csc(C2(N)CCCC2)n1 | 59 to 61
CC(C)(C)n1ncc(C#N)c1N | 90 to 92
NCc1ccc(CN2CCC(O)CC2)cc1 | 128 to 130
COc1ccc(N)cc1NC(=O)c1cccc(F)c1 | 100 to 102
O=C1CCC(C(F)(F)F)CN1 (centres undefined) | 141 to 143
O=C(Nc1ccc(C(=O)O)c(O)c1)c1ccc(Cl)c(Cl)c1 | 272 to 274
Clc1nc(-c2cccnc2)nc2sc3c(c12)CCCC3 | 137 to 139
COc1nc(C)cc(C)c1C#N | 96 to 98
CC(C)(C)C(=O)Nc1nccnc1C(=O)O | 96 to 98
O=S(=O)(c1ccccc1O)C(F)(F)F | 47 to 49
Cc1cc(C)c2c(C(=O)O)cc(C3CC3)nc2c1 | 217 to 219
O=C1Cc2cc3c(cc2CCN1)OCCO3 | 226 to 228
Cc1ccc(C(C)C)c(OC(C)C(=O)O)c1 (centres undefined) | 61 to 63
O=CC1=Cc2c(ccc3ccccc23)OC1 | 144 to 146
NCC(O)COc1ccc(F)cc1 (centres undefined) | 71 to 73
Nc1ccc2c(c1)COC2 | 89 to 91
Cc1nc(COc2cccc(C(=O)O)c2)cs1 | 153 to 155
N#Cc1cccnc1NCCO | 79 to 81
Nc1cccc(Oc2ncccn2)c1 | 125 to 127
Nc1c(C(=O)c2ccco2)oc2ccccc12 | 180 to 182
Nc1ccccc1N1CCOC1=O | 88 to 90
Cc1nc(=O)c2cnn(-c3ccc([N+](=O)[O-])cc3)c2[nH]1 | 341 to 343
Oc1nnc(S)n1CCc1ccccc1 | 167 to 169
